US20180235909A1, “Use of 1-phenyl-3-dimethylaminopropane Compounds for Treating Rheumatoid Pain” (Gruenenthal GmbH, priority 2009, published 2018)

Tested on: CFA-induced chronic arthritic pain
Test: CFA-induced chronic knee joint arthritic pain in rats, weight bearing (incapacitance tester)
Conditions: for Analgesic efficacy (mean percentage of maximal possible effect, weight bearing): highest possible dose without readout confounding side effects, five days post intraarticular CFA, n=10; for Side effects at higher doses: doses higher than the highest analyzed dose

Structure (SMILES): COc1ccc2c3c1O[C@H]1C(=O)CC[C@@]4(O)[C@@H](C2)N(C)CC[C@]314 [Oxycodone]
- Analgesic efficacy (mean percentage of maximal possible effect, weight bearing) (0.464 mg/kg i.v.): 46.1% @ 0.464 mg/kg
- Analgesic efficacy (mean percentage of maximal possible effect, weight bearing) (0.464 mg/kg i.v., listed as oxycodone): 46.1%
- Side effects at higher doses (rats): readout (weight bearing) confounding side effects

Structure (SMILES): CN1CC[C@]23c4c5ccc(O)c4O[C@H]2[C@@H](O)C=C[C@H]3[C@H]1C5 [Morphine]
- Analgesic efficacy (mean percentage of maximal possible effect, weight bearing) (2.15 mg/kg iv): 59.6% @ 2.15 mg/kg
- Analgesic efficacy (mean percentage of maximal possible effect, weight bearing) (2.15 mg/kg iv, listed as morphine): 59.6%
- Side effects at higher doses (rats): readout (weight bearing) confounding side effects

Structure (SMILES): CC(C)Cc1ccc(C(C)C(=O)O)cc1 (centres unmarked) [Ibuprofen]
- Analgesic efficacy (mean percentage of maximal possible effect, weight bearing) (147 mg/kg ip): 54.7% @ 147 mg/kg
- Analgesic efficacy (mean percentage of maximal possible effect, weight bearing) (147 mg/kg ip, listed as ibuprofen): 54.7%
- Side effects at higher doses (rats): readout (weight bearing) confounding side effects

Structure (SMILES): CC[C@@H](c1cccc(O)c1)[C@@H](C)CN(C)C [Tapentadol, (−)-(1R,2R)-3-(3-dimethylamino-1-ethyl-2-methyl-propyl)¬phenol]
- Side effects at higher doses (rats): readout (weight bearing) confounding side effects
- Effect on CFA-induced decrease in weight bearing (i.v. administration, rats, dose dependence): significantly reduced the CFA-induced decrease in weight bearing in a dose dependent manner
